Measured values from US5912351A, “Anhydrous 1,4-Dihydropyridines and salts thereof” (Recordati, S.A. Chemical and Pharmaceutical Company, priority 1995, dated 1999).

Columns and labels:
[1] = target: T1, enzyme ACAT (Mus musculus, UniProt Q61263); assay: Cholesterol esterification induced by AcLDL in mouse peritoneal macrophages; type: cell-based; details: FIG. 3
T1 construct: Mouse peritoneal macrophages were obtained by peritoneal lavage from mice; endogenous in cells; host or cells: peritoneal macrophages of Balb/c mice, three days after intraperitoneal thioglycolate
T1 sequence (Q61263 1-540): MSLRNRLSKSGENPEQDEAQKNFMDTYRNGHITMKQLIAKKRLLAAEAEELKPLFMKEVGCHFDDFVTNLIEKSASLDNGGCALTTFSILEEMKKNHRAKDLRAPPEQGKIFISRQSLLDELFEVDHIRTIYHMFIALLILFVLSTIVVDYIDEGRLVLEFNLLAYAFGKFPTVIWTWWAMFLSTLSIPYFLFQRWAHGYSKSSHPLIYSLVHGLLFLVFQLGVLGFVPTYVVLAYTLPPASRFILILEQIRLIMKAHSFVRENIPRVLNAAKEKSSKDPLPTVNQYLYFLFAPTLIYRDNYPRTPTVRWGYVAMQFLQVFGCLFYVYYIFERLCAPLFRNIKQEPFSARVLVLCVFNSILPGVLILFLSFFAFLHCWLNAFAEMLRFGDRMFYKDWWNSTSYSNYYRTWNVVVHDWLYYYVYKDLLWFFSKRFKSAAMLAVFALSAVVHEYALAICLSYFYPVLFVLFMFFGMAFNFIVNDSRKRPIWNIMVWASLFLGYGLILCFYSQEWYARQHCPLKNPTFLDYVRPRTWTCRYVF
Procedure: Cholesterol esterification induced by AcLDL in mouse peritoneal macrophages was investigated as follows. Mouse peritoneal macrophages were obtained by peritoneal lavage from mice (Balb/c Charles River, Calco, Italy) three days after intraperitoneal injection of thioglycolate. Cells (2×3×10^6) were plated in 35 mm wells with Dulbecco's minimum essential medium containing 10% fetal bovine serum. After 3 hours, the dishes were washed to eliminate unattached cells and maintained in Dulbecco's minimum essential medium plus 10% fetal bovine serum for 24 hours before use. After cell plating, experiments were performed at 37° C. in serum free Dulbecco's minimum essential medium containing 0.2% essentially fatty acid-free bovine serum albumin, AcLDL, a specific ACAT inhibitor, S-58035 (See C. A. Ross et al., J. Biol, Chem. 259: 815-819 (1984)), and lercanidipine, or the lercanidipine enantiomers indicated. Human LDL (d=1.019-1.063 g/ml) were isolated from plasma of healthy volunteers by sequential ultracentrifugation (Beckman L5-50, Palo Alto, Calif.). […] Trichloroacetic acid non-precipitable radioactivity was below 2% of total. […] Cholesterol esterification was measured after addition of [1-^14 C] oleic acid (0.68 mCi sample) complexed with bovine serum albumin during the last 1 or 2 hours of incubation by subsequent determination of radioactivity associated with cellular cholesteryl esters.

[2] = target: T1, enzyme ACAT; assay: Cholesterol esterification in cholesterol ester loaded macrophages; type: cell-based; details: macrophages preloaded with cholesteryl esters
Procedure: Cholesterol esterification induced by AcLDL in mouse peritoneal macrophages was investigated as follows. Mouse peritoneal macrophages were obtained by peritoneal lavage from mice (Balb/c Charles River, Calco, Italy) three days after intraperitoneal injection of thioglycolate. Cells (2×3×10^6) were plated in 35 mm wells with Dulbecco's minimum essential medium containing 10% fetal bovine serum. After 3 hours, the dishes were washed to eliminate unattached cells and maintained in Dulbecco's minimum essential medium plus 10% fetal bovine serum for 24 hours before use. After cell plating, experiments were performed at 37° C. in serum free Dulbecco's minimum essential medium containing 0.2% essentially fatty acid-free bovine serum albumin, AcLDL, a specific ACAT inhibitor, S-58035 (See C. A. Ross et al., J. Biol, Chem. 259: 815-819 (1984)), and lercanidipine, or the lercanidipine enantiomers indicated. Human LDL (d=1.019-1.063 g/ml) were isolated from plasma of healthy volunteers by sequential ultracentrifugation (Beckman L5-50, Palo Alto, Calif.). For acetylation, LDL were dialyzed against 0. 15 M NaCl , pH 7.4, diluted with an equal volume of saturated sodium acetate and treated with acetic anhydride. For [^125 1]AcLDL, lipoproteins were labelled with sodium [^125 I]iodide desalted by gel filtration on Sephadex G-25 eluted with phosphate buffered saline. Specific activity was 100-200 cpm/ng of protein. Trichloroacetic acid non-precipitable radioactivity was below 2% of total. All lipoproteins were sterile filtered. The cells were incubated for 24 hours with the tested compounds. […] Cholesterol esterification was measured after addition of [1-^14 C] oleic acid (0.68 mCi sample) complexed with bovine serum albumin during the last 1 or 2 hours of incubation by subsequent determination of radioactivity associated with cellular cholesteryl esters. […]
Cells, prepared according to the procedure in Example 6A, are loaded with cholesteryl esters by exposure for 24 hours to a medium containing 50 μg/ml acetyl LDL. ACAT inhibition was then determined as in Example 6A.

[3] = test system: LDL, isolated from human plasma; assay: Chemical (Cu++) oxidation of LDL, conjugated diene formation at 234 nm; type: biochemical; parameters: Lag time of LDL oxidation: unit not given here
Procedure: The ability of Lercanidipine to function as an antioxidant was evaluated by incubating LDL, isolated from human plasma, for 22 hours with an oxidizing agent (20 μM Cu++) in the presence of different concentrations of the test compounds (0.01 μM-50 μM). The LDL oxidation was followed by monitoring conjugated diene formation with a ultraviolet (UV) spectrometer at 234 nm.
The experimental conditions were as follows. LDL (d=1.019-1.063) were isolated from human pooled plasma by sequential ultracentrifugation at 4° C. and 40,000 rpm in a 50 Ti rotor, using a L5-50 ultracentrifuge (Beckman, Palo Alto, Calif.). The LDL were then dialyzed against 0.15 M NaCl containing 0.01% ethylenediaminetetraacetic acid pH 7.4, sterilized by filtration through a […] millipore filter and stored at 4° C. under nitrogen in the dark until use (up to 3 weeks). Before use, LDL were dialyzed against ethylenediaminetetraacetic acid free phosphate buffered saline, pH 7.4, on Sephadex G-25 columns (PD-10, Pharmacia Fine Chemicals, Uppsala, Sweden). Then the LDL were filtered through a sterile 0.22 μM filter. In a phosphate buffered saline (50 μg lipoprotein protein/ml), the LDL were oxidized by incubation at 25° C. with 20 μM CuSO4 for 3 hours. The lercanidipine solution was prepared as a 10^-2 M stock solution in methanol or ethanol and added as a methanol or ethanol solution (maximum 1% v/v) prior to addition of the copper solution. The effect of lercanidipine on the oxidation of LDL was determined by continuous monitoring of the formation of conjugated dienes by recording the increase in the absorbance at 234 nm at 5 min intervals during a three hour period, against a phosphate buffered saline blank, using a UV spectrophotometer (Beckman DU 640) equipped with a continuous reading and an automatic 6-cell changer. The time prior to the onset of oxidation (lag time) was calculated as the intercept between the line of the maximum slope of the propagation phase and the x-axis.

SMILES | relative potency, cholesterol esterification [1] | relative potency, cholesterol esterification [2] | IC50 ([2]; FIG. 4) [µM] | Lag time of LDL oxidation ([3]; 0.5 μM, 20 μM Cu++) | Lag time of LDL oxidation ([3]; 1.0 μM, 20 μM Cu++) | Lag time of LDL oxidation ([3]; 2.5 μM, 20 μM Cu++, P < 0.05) | Lag time of LDL oxidation ([3]; 5.0 μM, 20 μM Cu++, P < 0.01) | increase of the lag time for LDL oxidation ([3]; 10 μM) | Lag time of LDL oxidation ([3]; 10.0 μM, 20 μM Cu++, P < 0.01) | concentrations significantly suppressing the onset of LDL oxidation ([3]; 20 μM Cu++) | potency relative to lacidipine (LDL oxidation) ([3]; assays herein)
COC(=O)C1=C(C)NC(C)=C(C(=O)OC(C)(C)CN(C)CCC(c2ccccc2)c2ccccc2)[C@@H]1c1cccc([N+](=O)[O-])c1 [(R)-LE, (R)-(-)METHYL 1,1-N-TRIMETHYL-N-(3,3-DIPHENYLPROPYL)-2-AMINOETHYL 1,4-DIHYDRO-2,6-DIMETHYL-4-(3-NITROPHENYL)PYRIDINE-3,5-DICARBOXYLATE] | most potent compound | slightly more potent than the racemate | ~7 | – | – | – | – | – | – | – | –
COC(=O)C1=C(C)NC(C)=C(C(=O)OC(C)(C)CN(C)CCC(c2ccccc2)c2ccccc2)C1c1cccc([N+](=O)[O-])c1 (racemic) [LE, methyl 1,1,N-trimethyl-N-(3,3-diphenylpropyl)-2-aminoethyl 1,4-dihydro-2,6-dimethyl-4-(3-nitrophenyl)-pyridine-3,5-dicarboxylate] | – | – | – | 45.2 ± 3.7 | 49.8 ± 4.7 | 53.6 ± 3.3 | 73.2 ± 4.8 | more than 2 times | 112.7 ± 5.2 | greater than or equal to 2.5 μM | one order of magnitude higher
COC(=O)C1=C(C)NC(C)=C(C(=O)OC(C)(C)CN(C)CCC(c2ccccc2)c2ccccc2)[C@H]1c1cccc([N+](=O)[O-])c1 [(S)-LE, (S)-(+)-METHYL 1,1-N-TRIMETHYL-N-(3,3-DIPHENYLPROPYL)-2-AMINOETHYL 1,4-DIHYDRO-2,6-DIMETHYL-4-(3-NITROPHENYL)PYRIDINE-3,5-DICARBOXYLATE] | – | least potent | – | – | – | – | – | – | – | – | –
